Values quoted from earlier work, collected in patent US20050079136A1, “Aerosol formulations of delta tetrahydrocannabinol” (priority 2001, published 2005).

Test system: children with cancer

SMILES: CCCCCc1cc(O)c2c(c1)OC(C)(C)[C@@H]1CC=C(C)C[C@@H]21 [Δ^8 THC, Δ^8 Tetrahydrocannabinol]
- incidence of nausea: greatly reduced
- side effects: no significant side effects
